Reference: patent US5994299A, “Cyclosporin compounds, their preparation and the pharmaceutical compositions which contain them” (Rhone-Poulenc Rorer, S.A., priority 1996, dated 1999)
Like-named read-outs stand apart in the source and are kept apart here.

Key:
[1] = EP 484,281 and Eur. J. Immunol., 17, 1359 (1987); cited from earlier work

Substance | effect of combination (retroviruses; combined with AZT, ddl, Saquinavir, Nevirapin, Ritonavir and/or ribavirin) | effect of combination (retroviruses; combined with Indinavir) | immunosuppressing nature [1]
[(R)-2-(N,N-Dimethylamino)ethylthio-Sar]^3 -[4'-hydroxy-MeLeu]^4 -cyclosporin A [Example 1] | synergistic effect | additive effect | –
[4'-hydroxy-MeLeu]^4 -cyclosporin A | – | – | not immunosuppressing
